According to patent US11319347B2, “Peptide compound and method for producing same, composition for screening use, and method for selecting peptide compound” (FUJIFILM Corporation, priority 2017, dated 2022):
Starred links: 1 amine or outer side, 2 acyl side, 3 side chain; linkers in the order of their positions; H or OH if unused. Positions of bridges follow the written chain, without caps; N, C: chain ends. Non-standard residues stand in square brackets, D forms with d. Residues, ends and D or L forms follow the SMILES beside them. 2Pal(6-thiazolin-2-yl-4R-CO) = O=C([C@H](Cc1cccc(C2=N[C@H](C(=O)[*:3])CS2)n1)N[*:1])[*:2]; Phe(3-(4R-CO-2-thiazolinyl)) = O=C([C@H](Cc1cccc(C2=N[C@H](C(=O)[*:3])CS2)c1)N[*:1])[*:2]; dCha = N[C@H](CC1CCCCC1)C(=O)O

Assays:
[1] = Membrane permeability of synthesized cyclic peptides by PAMPA (Measurement Method A: 1 μmol/L; Method B: 10 μmol/L); format: in vitro ADME; conditions: Measurement method A, 25° C., 4 hours
Experimental: Evaluation of membrane permeability of synthesized cyclic peptide by PAMPA method In order to compare and examine the membrane permeability of the synthesized cyclic peptide, parallel artificial membrane permeability assay (PAMPA) was carried out.
An artificial phospholipid membrane was produced by adding 5 μL of a phospholipid organic solvent solution consisting of L-α-phosphatidylcholine (Avanti Polar Lipids, Inc., Cat. 840051P, 1.67%), 1,2-dioleoyl-sn-glycero-3-phospho-L-serine (Avanti Polar Lipids, Inc., Cat. 840035P, 0.33%), and n-dodecane special grade (Wako Pure Chemical Industries, Ltd., 047-21612)/1-octanol reagent special grade (Kanto Chemical Co., Inc., Cat. 31013-08)=10:1 to Filter Plate (Merck Millipore Corporation, Cat. MAIPN4550).
475 μL of 50 mmol/L potassium phosphate buffer (KPB, pH 7.4 or pH 6.5) was added to 25 μL of a DMSO solution containing the compound at a concentration of 20 μmol/L, so that the compound was diluted to a final concentration of 1 μmol/L. 300 μL of the compound solution was added to the lower side (donor side) of PAMPA 96-well plate (Filter Plate (Merck Millipore Corporation, Cat. MAIPN4550)) with an artificial phospholipid membrane being interposed therebetween. 200 μL of 5% DMSO KPB (pH 7.4) was added to the upper side (acceptor side) with the artificial phospholipid membrane being interposed therebetween. A permeation test through an artificial phospholipid membrane was carried out at 25° C. for 4 hours. The compound concentration in the solution in the donor plate and the acceptor plate was measured by LC/MS/MS, and the membrane permeation rate (Pe) of the compound was calculated from the following formula, assuming that C0 is an initial compound concentration in donor solution, t is a test time, A is a membrane filter area=0.3 cm^2, VD is a donor solution amount=300 μL, VA is an acceptor solution amount=200 μL, and CD(t) is a compound concentration in donor solution at time t, CA(t) is a compound concentration in acceptor solution at time t, and Cequilibrium=[CD(t)*VD+CA(t)*VA]/(VD+VA).
475 μL of 50 mmol/L potassium phosphate buffer (KPB, pH 7.4 or pH 6.5) was added to 25 μL of a DMSO solution containing the compound at a concentration of […], so that the compound was diluted to a final concentration of 10 μmol/L. The compound solution was added 300 μL each to the lower side (donor side) of an artificial phospholipid membrane of PAMPA 96-well plate (Filter Plate (Merck Millipore Corporation, Cat. MAIPN4550)). 200 μL of 5% DMSO KPB (pH 7.4) was added to the upper side (acceptor side) with the artificial phospholipid membrane being interposed therebetween. A permeation test through an artificial phospholipid membrane was carried out at 25° C. for 4 hours. The compound concentration in the solution in the donor plate and the acceptor plate was measured by LC/MS/MS, and the membrane permeation rate (Pe) of the compound was calculated from the following formula, assuming that Co is an initial compound concentration in donor solution, t is a test time, A is a membrane filter area=0.3 cm^2, VD is a donor solution amount=300 μL, VA is an acceptor solution amount=200 μL, and CD(t) is a compound concentration in donor solution at time t, CA(t) is a compound concentration in acceptor solution at time t, and Cequilibrium=[CD(t)*VD+CA(t)*VA]/(VD+VA).
The membrane permeability (Pe(10^−6 cm/s)) obtained by this method is described in the following table.
(§1) Evaluation standards are as follows.

[2] = Metabolic stability of cyclic peptides in human liver microsomes (HLM residual rate); format: in vitro ADME; conditions: 1 μmol/L, human liver microsomes 0.5 mg protein/mL, 37° C., 20 minutes, NADPH and UDPGA
Experimental: Test of metabolic stability of cyclic peptide in human liver microsome
An experiment using human liver microsomes (HLMs) was carried out in order to compare and examine the metabolic stability of the synthesized cyclic peptides.
The compound with a final concentration of 1 μmol/L was incubated in human liver microsomes (BD Cat #452117) prepared to a final concentration of 0.5 mg protein/mL using 100 mmol/L phosphate buffer (pH 7.4) at 37° C. for 20 minutes in the presence of reduced nicotinamide adenine dinucleotide phosphate (NADPH) and uridine 5′-diphosphate-α-D-glucuronic acid (UDPGA). Deproteinization treatment with acetonitrile was carried out, the amount of unaltered substance remaining was quantified using LC/MS/MS, and the residual rate (%) in 20 minutes was calculated. The HLM residual rate (%) obtained by this method is described in the following table.
as §1

| SMILES | Pe(10^−6 cm/sec) [1] | HLM residual rate [2] |
| --- | --- | --- |
| N=C(N)NCCC[C@@H]1NC(=O)[C@H](Cc2c[nH]c3ccccc23)NC(=O)[C@@H](CC2CCCCC2)NC(=O)[C@@H]2CCCN2C(=O)[C@@H]2CSC(=N2)c2cc3cc(ccc3[nH]2)C[C@@H](C(N)=O)NC1=O [3-2] | +++ (0.5<Pe (10^−6 cm/s)) | +++ (60%<HLM residual rate (%)) |
| N=C(N)NCCC[C@@H]1NC(=O)[C@H](Cc2c[nH]c3ccccc23)NC(=O)[C@@H](CC2CCCCC2)NC(=O)[C@@H]2CCCN2C(=O)[C@@H]2CSC(=N2)c2cc3c(cccc3s2)C[C@@H](C(N)=O)NC1=O [2-1] | +++ (0.5<Pe (10^−6 cm/s)) | +++ (60%<HLM residual rate (%)) |
| N=C(N)NCCC[C@@H]1NC(=O)[C@H](Cc2c[nH]c3ccccc23)NC(=O)[C@@H](CC2CCCCC2)NC(=O)[C@@H]2CCCN2C(=O)[C@@H]2CSC(=N2)c2cc(cs2)C[C@@H](C(N)=O)NC1=O [2-16] | +++ (0.5<Pe (10^−6 cm/s)) | ++ (40%<HLM residual rate (%)≤60%) |
| N=C(N)NCCC[C@@H]1NC(=O)[C@H](Cc2c[nH]c3ccccc23)NC(=O)[C@@H](CC2CCCCC2)NC(=O)[C@@H]2CCCN2C(=O)[C@@H]2CSC(=N2)c2ccc(nc2)C[C@@H](C(N)=O)NC1=O [2-11] | +++ (0.5<Pe (10^−6 cm/s)) | +++ (60%<HLM residual rate (%)) |
| N=C(N)NCCC[C@@H]1NC(=O)[C@H](Cc2c[nH]c3ccccc23)NC(=O)[C@@H](CC2CCCCC2)NC(=O)[C@@H]2CCCN2C(=O)[C@@H]2CSC(=N2)c2cncc(c2)C[C@@H](C(N)=O)NC1=O [2-7] | +++ (0.5<Pe (10^−6 cm/s)) | +++ (60%<HLM residual rate (%)) |
| N=C(N)NCCC[C@@H]1NC(=O)[C@H](Cc2c[nH]c3ccccc23)NC(=O)[C@@H](CC2CCCCC2)NC(=O)[C@@H]2CCCN2C(=O)[C@@H]2CSC(=N2)c2cccc(c2)C[C@@H](C(N)=O)NC1=O [3-4] (P[dCha]WR[Phe(3-(4R-CO-2-thiazolinyl))]-NH2; lactam N-5) | +++ (0.5<Pe (10^−6 cm/s)) | +++ (60%<HLM residual rate (%)) |
| N=C(N)NCCC[C@@H]1NC(=O)[C@H](Cc2c[nH]c3ccccc23)NC(=O)[C@@H](CC2CCCCC2)NC(=O)[C@@H]2CCCN2C(=O)[C@@H]2CSC(=N2)c2cccnc2C[C@@H](C(N)=O)NC1=O [2-6] | ++ (0.2<Pe (10^−6 cm/s)≤0.5) | +++ (60%<HLM residual rate (%)) |
| N=C(N)NCCC[C@@H]1NC(=O)[C@H](Cc2c[nH]c3ccccc23)NC(=O)[C@@H](CC2CCCCC2)NC(=O)[C@@H]2CCCN2C(=O)[C@@H]2CSC(=N2)c2ccnc(c2)C[C@@H](C(N)=O)NC1=O [2-10] | +++ (0.5<Pe (10^−6 cm/s)) | +++ (60%<HLM residual rate (%)) |
| COc1cc2cnc1C1=N[C@@H](CS1)C(=O)N1CCC[C@H]1C(=O)N[C@H](CC1CCCCC1)C(=O)N[C@@H](Cc1c[nH]c3ccccc13)C(=O)N[C@@H](CCCNC(=N)N)C(=O)N[C@H](C(N)=O)C2 [2-22] | ++ (0.2<Pe (10^−6 cm/s)≤0.5) | +++ (60%<HLM residual rate (%)) |
| N=C(N)NCCC[C@@H]1NC(=O)[C@H](Cc2c[nH]c3ccccc23)NC(=O)[C@@H](CC2CCCCC2)NC(=O)[C@@H]2CCCN2C(=O)[C@@H]2CSC(=N2)c2cccc(n2)C[C@@H](C(N)=O)NC1=O [2-9] (P[dCha]WR[2Pal(6-thiazolin-2-yl-4R-CO)]-NH2; lactam N-5) | – | +++ (60%<HLM residual rate (%)) |
| N=C(N)NCCC[C@@H]1NC(=O)[C@H](Cc2c[nH]c3ccccc23)NC(=O)[C@@H](CC2CCCCC2)NC(=O)[C@@H]2CCCN2C(=O)[C@@H]2CSC(=N2)c2csc(n2)C[C@@H](C(N)=O)NC1=O [2-19] | +++ (0.5<Pe (10^−6 cm/s)) | +++ (60%<HLM residual rate (%)) |
| N=C(N)NCCCC1NC(=O)[C@H](Cc2c[nH]c3ccccc23)NC(=O)[C@@H](CC2CCCCC2)NC(=O)[C@@H]2CCCN2C(=O)c2csc(n2)-c2cccc(c2)C[C@@H](C(N)=O)NC1=O (stereo partly drawn) [6-1] | +++ (0.5<Pe (10^−6 cm/s)) | +++ (60%<HLM residual rate (%)) |
| CC1(C)SC2=N[C@@H]1C(=O)N1CCC[C@H]1C(=O)N[C@H](CC1CCCCC1)C(=O)N[C@@H](Cc1c[nH]c3ccccc13)C(=O)N[C@@H](CCCNC(=N)N)C(=O)N[C@H](C(N)=O)Cc1cccc2n1 [2-21] | +++ (0.5<Pe (10^−6 cm/s)) | +++ (60%<HLM residual rate (%)) |
| C[C@@H]1NC(=O)CSC[C@@H](C(N)=O)NC(=O)[C@H](CCCNC(=N)N)NC(=O)[C@H](Cc2c[nH]c3ccccc23)NC(=O)[C@@H](CC2CCCCC2)NC(=O)[C@@H]2CCCN2C1=O [7-1] ({CH2CO}-AP[dCha]WRC-NH2; thioether N-6) | + (0.01<Pe (10^−6 cm/s)≤0.2) | + (HLM residual rate (%)≤40%) |
| CC(=O)N[C@H]1CSSC[C@@H](C(N)=O)NC(=O)[C@H](CCCNC(=N)N)NC(=O)[C@H](Cc2c[nH]c3ccccc23)NC(=O)[C@@H](CC2CCCCC2)NC(=O)[C@@H]2CCCN2C1=O [9-1] (Ac-CP[dCha]WRC-NH2; disulfide 1-6) | + (0.01<Pe (10^−6 cm/s)≤0.2) | + (HLM residual rate (%)≤40%) |
| N=C(N)NCCC[C@@H]1NC(=O)[C@H](Cc2c[nH]c3ccccc23)NC(=O)[C@@H](CC2CCCCC2)NC(=O)[C@@H]2CCCN2C(=O)[C@@H]2CSC(=N2)c2ccc(nn2)C[C@@H](C(N)=O)NC1=O [2-15] | – | ++ (40%<HLM residual rate (%)≤60%) |
| N=C(N)NCCC[C@@H]1NC(=O)[C@H](Cc2c[nH]c3ccccc23)NC(=O)[C@@H](CC2CCCCC2)NC(=O)[C@@H]2CCCN2C(=O)[C@@H]2CSC(=N2)c2cc(ccn2)C[C@@H](C(N)=O)NC1=O [2-8] | – | +++ (60%<HLM residual rate (%)) |
| N=C(N)NCCC[C@@H]1NC(=O)[C@H](Cc2c[nH]c3ccccc23)NC(=O)[C@@H](CC2CCCCC2)NC(=O)[C@@H]2CCCN2C(=O)[C@@H]2CSC(=N2)c2ccncc2C[C@@H](C(N)=O)NC1=O [2-5] | ++ (0.2<Pe (10^−6 cm/s)≤0.5) | ++ (40%<HLM residual rate (%)≤60%) |
